According to EP2608671B1, “COMPOUNDS FOR TREATMENT OF CANCER” (Gtx, Inc., priority 2010, dated 2012):
Where two headings read alike, the source gives them in different places.

How the values were obtained:
PPC-1 = test: cells; conditions: Homo sapiens, PPC-1, 96 h
LNCaP = test: cells; conditions: Homo sapiens, 96 h
PC-3 = test: cells; conditions: Homo sapiens, PC-3, 96 h
From the text: (§1) The only compounds which belong to the invention are the ones falling under the scope of formula (XI).
Cells were stained with SRB solution.
Cells. […] Cells between the third and fifth passages were used for experiments.
Cell growth inhibition studies. […] Cells were stained with sulphorhodamine B (SRB) solution.

B16-F1 = test: SRB cell growth inhibition (cytotoxicity) assay; type: cell-based, mouse; conditions: Mus musculus
From the text: as §1

DU 145 = test: cells; conditions: Homo sapiens, DU-145, 96 h
A375 = test: SRB cell growth inhibition (cytotoxicity) assay; type: cell-based, human; conditions: Homo sapiens
WM-164 = test: SRB cell growth inhibition (cytotoxicity) assay; type: cell-based, human; conditions: Homo sapiens
[1] = read-out: IC50 ± SEM (nM), PPC-1
[2] = read-out: IC50 ± SEM (nM), LNCaP
[3] = read-out: IC50 ± SEM (nM), PC-3
[4] = B16-F1, read-out: IC50 ± SEM (nM), B16-F1
[5] = read-out: IC50 ± SEM (nM), DU 145
[6] = A-375, 96 h, read-out: IC50 ± SEM (nM), A375
[7] = WM164, SRB assay, 96 h, Table 2, read-out: IC50 ± SEM (nM), WM-164
[8] = B16-F1 melanoma cells, 48 h, SRB, read-out: IC50 ± SEM (nM) B16-F1
[9] = read-out: IC50 ± SEM (nM) Du 145
[10] = A-375, A375 melanoma cells, 48 h, SRB, read-out: IC50 ± SEM (nM) A375
[11] = WM164 melanoma cells, 48 h, SRB, read-out: IC50 ± SEM (nM) WM164

SMILES	IC50 (PPC-1; [1])	IC50 (LNCaP; [2])	IC50 (PC-3; [3])	IC50 (B16-F1; [4])	IC50 (DU 145; [5])	IC50 (A375; [6])	IC50 (WM-164; [7])	IC50 (B16-F1; [8])	IC50 (DU 145; [9])	IC50 (A375; [10])	IC50 (WM-164; [11])	IC50 (PPC-1; read-out: IC50 (nM), PPC-1)	IC50 (LNCaP; read-out: IC50 (nM), LNCaP)	IC50 (PC-3; read-out: IC50 (nM), PC-3)	IC50 (B16-F1; B16-F1, SRB, 48 h, Table 11, read-out: IC50 (nM), B16-F1)	IC50 (DU 145; read-out: IC50 (nM), Du 145)	IC50 (A375; A-375, SRB, 48 h, Table 11, read-out: IC50 (nM), A375)	IC50 (WM-164; WM164, SRB, 48 h, Tables 11, 12, read-out: IC50 (nM), WM164)
COc1cc(Sc2cccc(-c3ccccc3)c2)cc(OC)c1OC [4a, Biphenyl-3-yl(3,4,5-trimethoxyphenyl)sulfane]	2300 ± 100 nM	300 ± 200 nM	> 10000 nM	2400 ± 900 nM	> 10000 nM	11600 ± 400 nM	2000 nM											
COc1cc(S(=O)(=O)c2cccc(-c3ccccc3)c2)cc(OC)c1OC [4b, 3-(3,4,5-Trimethoxyphenylsulfonyl)biphenyl]	> 10000 nM	> 10000 nM	> 10000 nM	> 10000 nM	> 10000 nM	> 10000 nM	> 10000 nM											
COc1cc([S+]([O-])c2cccc(-c3ccccc3)c2)cc(OC)c1OC (stereo not drawn) [4c, 3-(3,4,5-Trimethoxyphenylsulfinyl)biphenyl]	> 10000 nM	> 10000 nM	> 10000 nM	> 10000 nM	> 10000 nM	> 10000 nM	> 10000 nM											
COc1cc(NS(=O)(=O)c2cccc(-c3ccccc3)c2)cc(OC)c1OC [4d, N-(3,4,5-Trimethoxyphenyl)biphenyl-3-sulfonamide]	> 10000 nM	> 10000 nM	> 10000 nM	> 10000 nM	> 10000 nM	> 10000 nM	> 10000 nM											
COc1ccc(C(=O)c2cn(S(=O)(=O)c3ccccc3)c(-c3ccccc3)n2)cc1 [11ab, (4-methoxyphenyl)(2-phenyl-1-(phenylsulfonyl)-1H-imidazol-4-yl)methanone]	> 10000 nM	> 10000 nM	> 10000 nM					> 10000 nM	> 10000 nM	> 10000 nM	> 10000 nM							
COc1cccc(C(=O)c2cn(S(=O)(=O)c3ccccc3)c(-c3ccccc3)n2)c1 [11ac, (3-methoxyphenyl)(2-phenyl-1-(phenylsulfonyl)-1H-imidazol-4-yl)methanone]	> 10000 nM	> 10000 nM	> 10000 nM					> 10000 nM	> 10000 nM	> 10000 nM	> 10000 nM							
O=C(c1ccc(F)cc1)c1cn(S(=O)(=O)c2ccccc2)c(-c2ccccc2)n1 [11af, (4-fluorophenyl)(2-phenyl-1-(phenylsulfonyl)-1H-imidazol-4-yl)methanone]	575 nM	573 nM	2230 nM					946 ± 86 nM	846 nM	630 ± 72 nM	596 ± 61 nM							
Cc1ccc(C(=O)c2cn(S(=O)(=O)c3ccccc3)c(-c3ccccc3)n2)cc1 [11ah, (2-phenyl-1-(phenylsulfonyl)-1H-imidazol-4-yl)(p-tolyl)methanone]	> 10000 nM	> 10000 nM	> 10000 nM					> 10000 nM	> 10000 nM	> 10000 nM	> 10000 nM							
Cc1ccc(-c2nc(C(=O)c3ccc(F)cc3)cn2S(=O)(=O)c2ccccc2)cc1 [11db, (4-fluorophenyl)(1-(phenylsulfonyl)-2-(p-tolyl)-1H-imidazol-4-yl)methanone]	57 ± 1 nM	55 ± 3 nM	80 ± 1 nM					287 ± 31 nM	80 ± 1 nM	113 ± 14 nM	107 ± 14 nM							
COc1cc(C(=O)c2cn(S(=O)(=O)c3ccccc3)c(-c3cc(OC)c(OC)c(OC)c3)n2)cc(OC)c1OC [11ea, (1-(phenylsulfonyl)-2-(3,4,5-trimethoxyphenyl)-1H-imidazol-4-yl)(3,4,5-trimethoxyphenyl)methanone]	> 10000 nM	> 10000 nM	> 10000 nM					> 10000 nM	> 10000 nM	> 10000 nM	> 10000 nM							
COc1cc(-c2nc(C(=O)c3ccc(F)cc3)cn2S(=O)(=O)c2ccccc2)cc(OC)c1OC [11eb, (4-fluorophenyl)(1-(phenylsulfonyl)-2-(3,4,5-trimethoxyphenyl)-1H-imidazol-4-yl)methanone]	> 10000 nM	> 10000 nM	> 10000 nM					> 10000 nM	> 10000 nM	3840 nM	> 10000 nM							
COc1cc(C(=O)c2cn(S(=O)(=O)c3ccccc3)c(-c3ccc(N(C)C)cc3)n2)cc(OC)c1OC [11ga, (2-(4-(dimethylamino)phenyl)-1-(phenylsulfonyl)-1H-imidazol-4-yl)(3,4,5-trimethoxyphenyl)methanone]	72 ± 0.4 nM	62 ± 2 nM	93 ± 6 nM					1200 ± 90 nM	99 ± 2 nM	162 ± 13 nM	308 ± 32 nM							
CN(C)c1ccc(-c2nc(C(=O)c3ccc(F)cc3)cn2S(=O)(=O)c2ccccc2)cc1 [11gb, (2-(4-(dimethylamino)phenyl)-1-(phenylsulfonyl)-1H-imidazol-4-yl)(4-fluorophenyl)methanone]	48 ± 0.3 nM	56 ± 6 nM	83 ± 3 nM					242 ± 26 nM	74 ± 0.5 nM	55 ± 7 nM	56 ± 4 nM							
COc1ccc(-c2nc(C(=O)c3cc(OC)c(OC)c(OC)c3)cn2S(=O)(=O)c2ccccc2)cc1OC [11ha, (2-(3,4-dimethoxyphenyl)-1-(phenylsulfonyl)-1H-imidazol-4-yl)(3,4,5-trimethoxyphenyl)methanone]	117 ± 2 nM	114 ± 6 nM	197 ± 9 nM					970 ± 68 nM	144 ± 29 nM	192 ± 15 nM	139 ± 15 nM							
COc1ccc(-c2nc(C(=O)c3ccc(F)cc3)cn2S(=O)(=O)c2ccccc2)cc1OC [11hb, (2-(3,4-dimethoxyphenyl)-1-(phenylsulfonyl)-1H-imidazol-4-yl)(4-fluorophenyl)methanone]	1440 ± 49 nM	1920 ± 77 nM	10000 nM					2000 ± 400 nM	3310 nM	960 ± 59 nM	1400 ± 30 nM							
COc1cc(C(=O)c2cn(S(=O)(=O)c3ccccc3)c(-c3ccccc3C(F)(F)F)n2)cc(OC)c1OC [11ia, (1-(phenylsulfonyl)-2-(2-(trifluoromethyl)phenyl)-1H-imidazol-4-yl)(3,4,5-trimethoxyphenyl)methanone]	> 10000 nM	> 10000 nM	> 10000 nM					> 10000 nM	> 10000 nM	> 10000 nM	> 10000 nM							
O=C(c1ccc(F)cc1)c1cn(S(=O)(=O)c2ccccc2)c(-c2ccccc2C(F)(F)F)n1 [11ib, (1-(phenylsulfonyl)-2-(2-(trifluoromethyl)phenyl)-1H-imidazol-4-yl)(4-fluorophenyl)methanone]	> 10000 nM	> 10000 nM	> 10000 nM					> 10000 nM	> 10000 nM	> 10000 nM	> 10000 nM							
COc1ccc(C(=O)c2c[nH]c(-c3ccccc3)n2)cc1 [12ab, (4-methoxyphenyl)(2-phenyl-1H-imidazol-4-yl)methanone]												> 10000 nM	> 10000 nM	> 10000 nM	> 10000 nM	> 10000 nM	> 10000 nM	> 10000 nM
